Test results published in PMC11904948, “Peptide‐Drug Conjugate for Therapeutic Reprogramming of Tumor‐Associated Macrophages in Breast Cancer” (Advanced Science, 2025).

Test system: YAP
Test: YAP immunofluorescence in BMDM
Format: cell-based, mouse
Settings: day 5 BMDM, 10 µM 4 h, washed, confocal microscopy 3 h later
From the text: We speculated that the observed in vivo effect of MACTIDE‐V could be mediated by the modulation of macrophage phenotype elicited by Verteporfin, a drug that inhibits the co‐transcription factor Yes Associated Protein (YAP), and prevents the anti‐inflammatory shift in macrophages.^[ [26] ^] We therefore analyzed the effect of MACTIDE‐V on YAP localization and phenotypic changes in mouse bone marrow‐derived macrophages (BMDM) in vitro. We first treated BMDM with MACTIDE‐V, MACTIDE, or CtrlPep‐V and evaluated changes in YAP localization 3 h later using confocal microscopy. […] These observations are consistent with the reported effect of Verteporfin sequestering YAP in the cytoplasm.^[ [27], [28] ^]
Figure 6 MACTIDE‐V promotes a YAP‐ mediated anti‐ tumoral switch in bone marrow‐derived macrophages. Day 5 BMDM were incubated for 4 h with 10 µM conjugates, washed, and followed‐up in media. A) YAP Immunofluorescence (shown in red) was analyzed 3 h after treatment and B) phagocytosis of fluorescent E. coli particles at 48 h follow‐up. C) Flow cytometry on BMDM 48 h after treatment. Left panel, GeoMean of MHC II, CD206, CD80, and PD‐L1 in Balb/c BMDM. Median ± interquartile range. […] D) Heatmap of the mRNA expression of genes involved in the functional activation of BMDM, YAP signaling, and adhesion, measured by real‐time PCR 48 h after treatment in BALB/c BMDM. n = 3 independent experiments. […]

Row | Substance | YAP localization
1 | Vert‐Ahx‐AKPCGS‐OH [CtrlPep‐V, reference compound] | uniformly spread throughout the cell
2 | Vert‐Ahx‐G(CTKSIPPIC)SPGAK‐OH (disulfide) [MACTIDE‐V] | excluded YAP from the nucleus
